Data: ChEMBL document CHEMBL1212936, “Discovery of 2-[1-(4-chlorophenyl)cyclopropyl]-3-hydroxy-8-(trifluoromethyl)quinoline-4-carboxylic acid (PSI-421), a P-selectin inhibitor with improved pharmacokinetic properties and oral efficacy in models of vascular injury” (J Med Chem, 2010)
≈ marks a conversion by molar mass, not a printed value. Calls of active or inactive are those of the source. The calls are words filed in the database; no cut-off is given here.

Legend:
Mus musculus [1] = experiment: Dose normalized AUC in C57B6 mouse measured per mg of plasma at 2 mg/kg, iv and 10 mg/kg, po; assay type: ADME, organism-based; conditions: in vivo
[2] = Physiological stability of the compound at pH 1 assessed as compound remaining after 16 hrs in presence of 20% acetonitrile; assay type: physicochemical; conditions: read-out: Stability
[3] = Physiological stability of the compound in simulated intestinal bile salts-lecithin mixture fluid assessed as compound remaining after 8 hrs in presence of 20% acetonitrile; assay type: physicochemical; conditions: read-out: Stability
[4] = Physiological stability of the compound at pH 4.5 assessed as compound remaining after 24 hrs in presence of 20% acetonitrile; assay type: physicochemical; conditions: read-out: Stability
[5] = Aqueous solubility of the compound at pH 7.4; assay type: physicochemical; conditions: aqueous solution, read-out: solubility
[6] = Oral bioavailability in Sprague-Dawley rat at 10 mg/kg; assay type: ADME, organism-based; conditions: in vivo
[7] = Physiological stability of the compound at pH 4.5 assessed as compound remaining after 12 hrs in presence of 20% acetonitrile; assay type: physicochemical; conditions: read-out: Stability
[8] = Physiological stability of the compound at pH 6.6 assessed as compound remaining after 8 hrs in presence of 20% acetonitrile; assay type: physicochemical; conditions: read-out: Stability
[9] = Half life in Beagle dog liver microsomes; assay type: ADME, Canis lupus familiaris, Microsome
[10] = Half life in C57B6 mouse liver microsomes; assay type: ADME, Microsome
[11] = Solubility of the compound in simulated intestinal fluid; assay type: physicochemical
[12] = Physiological stability of the compound at pH 7.4 assessed as compound remaining after 12 hrs in presence of 20% acetonitrile; assay type: physicochemical; conditions: read-out: Stability
[13] = biological target: T1, P-selectin glycoprotein ligand 1 (Homo sapiens) (UniProt Q14242); experiment: Binding affinity to recombinant PSGL-1 assessed as saturation transfer difference at 100 uM by NMR analysis
T1 sequence (whole entry): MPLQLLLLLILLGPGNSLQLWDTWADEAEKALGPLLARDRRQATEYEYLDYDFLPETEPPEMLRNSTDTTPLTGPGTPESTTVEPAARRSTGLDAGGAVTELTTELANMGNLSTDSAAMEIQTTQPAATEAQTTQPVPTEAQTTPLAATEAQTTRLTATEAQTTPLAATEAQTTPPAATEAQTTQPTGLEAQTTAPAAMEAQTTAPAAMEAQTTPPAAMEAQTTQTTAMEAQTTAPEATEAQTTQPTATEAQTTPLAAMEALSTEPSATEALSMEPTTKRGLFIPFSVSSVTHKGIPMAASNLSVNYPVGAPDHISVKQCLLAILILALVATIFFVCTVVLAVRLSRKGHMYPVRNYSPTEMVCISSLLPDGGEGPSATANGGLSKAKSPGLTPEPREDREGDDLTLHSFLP

[14] = Genotoxicity in Salmonella Typhimurium by Ames test; assay type: toxicity; conditions: salmonella enterica subsp. enterica serovar typhimurium
[15] = Physiological stability of the compound at pH 1 assessed as compound remaining after 24 hrs in presence of 20% acetonitrile; assay type: physicochemical; conditions: read-out: Stability
Cynomolgus monkey = experiment: Dose normalized AUC in cynomolgus monkey measured per mg of plasma at 5 mg/kg, iv and po; assay type: ADME, organism-based, Macaca fascicularis; design: dose 5 mg/kg, route oral; conditions: in vivo
[16] = Physiological stability of the compound in simulated intestinal fluid assessed as compound remaining after 8 hrs in presence of 20% acetonitrile; assay type: physicochemical; conditions: read-out: Stability
[17] = Oral bioavailability in cynomolgus monkey at 5 mg/kg; assay type: ADME, organism-based, Macaca fascicularis; conditions: in vivo
Papio anubis = experiment: Antithrombotic activity in Baboon deep vein thrombosis model assessed as vein opening at 1 mg/kg, po; assay type: functional, organism-based; design: dose 1 mg/kg
Plasma [18] = experiment: Drug level in Sprague-Dawley rat plasma at 7.5 mg/kg, po; assay type: ADME, organism-based; design: dose 7.5 mg/kg, route oral; conditions: in vivo
[19] = Physiological stability of the compound at pH 4.5 assessed as compound remaining after 16 hrs in presence of 20% acetonitrile; assay type: physicochemical; conditions: read-out: Stability
[20] = Half life in cynomolgus monkey liver microsomes; assay type: ADME, Macaca fascicularis, Microsome
[21] = Physiological stability of the compound at pH 9 assessed as compound remaining after 4 hrs in presence of 20% acetonitrile; assay type: physicochemical; conditions: read-out: Stability
[22] = Physiological stability of the compound in simulated intestinal fluid assessed as compound remaining after 20 hrs in presence of 20% acetonitrile; assay type: physicochemical; conditions: read-out: Stability
[23] = Physiological stability of the compound at pH 6.6 assessed as compound remaining after 20 hrs in presence of 20% acetonitrile; assay type: physicochemical; conditions: read-out: Stability
Canis familiaris = experiment: Dose normalized AUC in Beagle dog measured per mg of plasma at 2 mg/kg, iv and 10 mg/kg, po; assay type: ADME, organism-based, Canis lupus familiaris; conditions: in vivo
[24] = Physiological stability of the compound in simulated intestinal bile salts-lecithin mixture fluid assessed as compound remaining after 16 hrs in presence of 20% acetonitrile; assay type: physicochemical; conditions: read-out: Stability
[25] = Physiological stability of the compound in simulated intestinal fluid assessed as compound remaining after 12 hrs in presence of 20% acetonitrile; assay type: physicochemical; conditions: read-out: Stability
Rattus norvegicus = experiment: Inhibition of leukocytes rolling flux in acute intravital microscopy model of Sprague-Dawley rat cremasteric postcapillary venules at 3 mg/kg, po after 35 mins relative to control; assay type: functional
Plasma [26] = experiment: Drug level in Sprague-Dawley rat plasma at 3 mg/kg, po; assay type: ADME, organism-based; design: dose 3 mg/kg, route oral; conditions: in vivo
[27] = Physiological stability of the compound at pH 1 assessed as compound remaining after 8 hrs in presence of 20% acetonitrile; assay type: physicochemical; conditions: read-out: Stability
[28] = Half life in human liver microsomes; assay type: ADME, Microsome
[29] = Physiological stability of the compound at pH 4.5 assessed as compound remaining after 8 hrs in presence of 20% acetonitrile; assay type: physicochemical; conditions: read-out: Stability
[30] = Oral bioavailability in C57B6 mouse at 10 mg/kg; assay type: ADME, organism-based; conditions: in vivo
[31] = Physiological stability of the compound at pH 1 assessed as compound remaining after 4 hrs in presence of 20% acetonitrile; assay type: physicochemical; conditions: read-out: Stability
[32] = Physiological stability of the compound at pH 7.4 assessed as compound remaining after 24 hrs in presence of 20% acetonitrile; assay type: physicochemical; conditions: read-out: Stability
[33] = Aqueous solubility of the compound at pH 9; assay type: physicochemical; conditions: aqueous solution, read-out: solubility
[34] = Physiological stability of the compound in simulated intestinal bile salts-lecithin mixture fluid assessed as compound remaining after 4 hrs in presence of 20% acetonitrile; assay type: physicochemical; conditions: read-out: Stability
[35] = Physiological stability of the compound at pH 9 assessed as compound remaining after 20 hrs in presence of 20% acetonitrile; assay type: physicochemical; conditions: read-out: Stability
[36] = Physiological stability of the compound at pH 7.4 assessed as compound remaining after 16 hrs in presence of 20% acetonitrile; assay type: physicochemical; conditions: read-out: Stability
[37] = Physiological stability of the compound at pH 9 assessed as compound remaining after 12 hrs in presence of 20% acetonitrile; assay type: physicochemical; conditions: read-out: Stability
[38] = Physiological stability of the compound at pH 9 assessed as compound remaining after 8 hrs in presence of 20% acetonitrile; assay type: physicochemical; conditions: read-out: Stability
[39] = Physiological stability of the compound in simulated intestinal fluid assessed as compound remaining after 16 hrs in presence of 20% acetonitrile; assay type: physicochemical; conditions: read-out: Stability
Mus musculus [40] = experiment: Reduction of leukocytes rolling flux in acute intravital microscopy model of C57B6 mouse cremasteric postcapillary venules at 50 mg/kg, po after 35 mins relative to control; assay type: functional; design: scale not given: the % may be the effect or the level left
[41] = Physiological stability of the compound at pH 7.4 assessed as compound remaining after 20 hrs in presence of 20% acetonitrile; assay type: physicochemical; conditions: read-out: Stability
[42] = Physiological stability of the compound at pH 9 assessed as compound remaining after 24 hrs in presence of 20% acetonitrile; assay type: physicochemical; conditions: read-out: Stability

Compound: O=C(O)c1c(O)c(C2(c3ccc(Cl)cc3)CC2)nc2c(C(F)(F)F)cccc12
- AUC (Mus musculus [1]): 1505 ng·h/mL
- remaining at 16 h [2]: 102%
- remaining at 8 h [3]: 101%
- remaining at 24 h [4]: 102%
- solubility [5]: 165 µg/mL (≈ 405 µM)
- bioavailability [6]: 67%
- remaining at 12 h [7]: 99.2%
- remaining at 8 h [8]: 104%
- half-life [9]: > 1 h
- half-life [10]: > 1 h
- solubility [11]: 3950 µg/mL (≈ 9690 µM)
- remaining at 12 h [12]: 102%
- Activity [13]: 9%
- Activity [14]: Non-toxic
- remaining at 24 h [15]: 101%
- AUC (Cynomolgus monkey): 84620 ng·h/mL
- remaining at 8 h [16]: 104%
- bioavailability [17]: 96%
- Activity (Papio anubis): Active
- Cp (Plasma [18]): 6000 ng/mL
- remaining at 16 h [19]: 101%
- half-life [20]: > 1 h
- remaining at 4 h [21]: 98.5%
- remaining at 20 h [22]: 99.4%
- remaining at 20 h [23]: 102%
- AUC (Canis familiaris): 28862 ng·h/mL
- remaining at 16 h [24]: 102%
- remaining at 12 h [25]: 101%
- inhibition in vivo at 3 mg/kg (Rattus norvegicus): 12%
- Cp (Plasma [26]): 3000 ng/mL
- remaining at 8 h [27]: 102%
- half-life [28]: > 1 h
- remaining at 8 h [29]: 102%
- bioavailability [30]: 67%
- remaining at 4 h [31]: 101%
- remaining at 24 h [32]: 103%
- solubility [33]: 1070 µg/mL (≈ 2630 µM)
- remaining at 4 h [34]: 102%
- remaining at 20 h [35]: 101%
- remaining at 16 h [36]: 102%
- remaining at 12 h [37]: 98.8%
- remaining at 8 h [38]: 98%
- remaining at 16 h [39]: 101%
- Activity (Mus musculus [40]): 69%
- remaining at 20 h [41]: 102%
- remaining at 24 h [42]: 99.6%
